The values below are quoted from earlier work in US20150258192A1, “COMPOSITIONS AND METHODS FOR PREVENTING OR TREATING CHRONIC LUNG ALLOGRAFT DYSFUNCTION (CLAD) AND IDIOPATHIC PULMONARY FIBROSIS (IPF)” (priority 2014, published 2015).

Series [1] deals with Ca^2+/calmodulin-dependent protein kinase II (CaMKII). The settings on record: cited from earlier work.
In a further series the test system is PKA. The settings on record: 1 μM; cited from earlier work.
Another series has as its system PKC. The following applies: 1 μM; cited from earlier work.
A further series concerns the target CaMKIV (Homo sapiens, UniProt Q16566). The following applies: 1 μM; cited from earlier work.

pIC50: −log10 of the molar value.

CaMKIV, sequence (Q16566 whole entry, species assumed): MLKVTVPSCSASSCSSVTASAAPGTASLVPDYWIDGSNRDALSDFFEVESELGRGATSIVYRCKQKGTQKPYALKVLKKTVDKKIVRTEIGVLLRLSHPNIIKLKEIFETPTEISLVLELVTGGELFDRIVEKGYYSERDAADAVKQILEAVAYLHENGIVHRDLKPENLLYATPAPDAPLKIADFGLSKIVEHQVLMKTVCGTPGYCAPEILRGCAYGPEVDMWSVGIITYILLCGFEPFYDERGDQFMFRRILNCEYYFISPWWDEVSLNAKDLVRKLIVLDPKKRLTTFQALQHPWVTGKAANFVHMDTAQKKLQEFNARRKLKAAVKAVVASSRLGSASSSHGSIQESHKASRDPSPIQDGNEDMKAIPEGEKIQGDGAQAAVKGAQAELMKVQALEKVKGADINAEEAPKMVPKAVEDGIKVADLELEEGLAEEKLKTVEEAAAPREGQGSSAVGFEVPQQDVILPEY

With “autocamtide-2 related inhibitory peptide [AIP]”, the CaMKII activity entry in series [1] (1 μM) was “inhibited completely”. Besides, in series [1], the negative logarithm of the IC50 (pIC50) is 7.00. In addition, the PKA activity result in the series on PKA is “not affected”. In addition, the PKC activity result with PKC is “not affected”. In addition, on CaMKIV, the CaMKIV activity entry was “not affected”.

The pIC50 is the IC50 on a negative log10 scale, so that one unit is a factor of ten.
